{
  "source": "paper PMC11206297",
  "about": "“Targeting NAD Metabolism: Rational Design, Synthesis and In Vitro Evaluation of NAMPT/PARP1 Dual-Target Inhibitors as Anti-Breast Cancer Agents” (Molecules, 2024)",
  "key": {"MCF-10A": {"tested_on": "MCF-10A", "test": "MTT cell viability assay, MCF-10A normal breast epithelial cells", "assay_type": "cell-based, human", "method": "(§1) MDA-MB-468, MDA-MB-231, MCF-7, and MCF-10A cell lines were obtained from the National Collection of Authenticated Cell Culture, China. The cells were cultured in DMEM medium supplemented with 10% FBS and 1% penicillin/streptomycin, and maintained at 37 °C in a humidified atmosphere with 5% CO2.\n(§2) Cell viability was assessed using the MTT assay. Cells were seeded at a density of 3 × 10^3 cells per well in a 96-well plate and treated with various concentrations (0.05, 0.2, 0.8, 3.2, 6.4, 12.8 µM) of the compounds for 72 h. After incubation, 100 µL of MTT solution (0.5 mg/mL) was added to each well and further incubated for 4 h. The resulting formazan crystals were dissolved in 150 µL of DMSO, and the absorbance was measured at 570 nm using a microplate reader."}, "[1]": {"test": "MTT cell viability assay, MCF-10A normal breast epithelial cells", "assay_type": "cell-based, human", "conditions": "human, MCF-10A normal breast epithelial cells; MCF-10A; mean ± SEM; read-out: Cytotoxicity IC50", "method": "as §1, §2"}, "PARP1": {"target": "PARP1 (Homo sapiens, UniProt P09874)", "sequence (P09874 whole entry)": "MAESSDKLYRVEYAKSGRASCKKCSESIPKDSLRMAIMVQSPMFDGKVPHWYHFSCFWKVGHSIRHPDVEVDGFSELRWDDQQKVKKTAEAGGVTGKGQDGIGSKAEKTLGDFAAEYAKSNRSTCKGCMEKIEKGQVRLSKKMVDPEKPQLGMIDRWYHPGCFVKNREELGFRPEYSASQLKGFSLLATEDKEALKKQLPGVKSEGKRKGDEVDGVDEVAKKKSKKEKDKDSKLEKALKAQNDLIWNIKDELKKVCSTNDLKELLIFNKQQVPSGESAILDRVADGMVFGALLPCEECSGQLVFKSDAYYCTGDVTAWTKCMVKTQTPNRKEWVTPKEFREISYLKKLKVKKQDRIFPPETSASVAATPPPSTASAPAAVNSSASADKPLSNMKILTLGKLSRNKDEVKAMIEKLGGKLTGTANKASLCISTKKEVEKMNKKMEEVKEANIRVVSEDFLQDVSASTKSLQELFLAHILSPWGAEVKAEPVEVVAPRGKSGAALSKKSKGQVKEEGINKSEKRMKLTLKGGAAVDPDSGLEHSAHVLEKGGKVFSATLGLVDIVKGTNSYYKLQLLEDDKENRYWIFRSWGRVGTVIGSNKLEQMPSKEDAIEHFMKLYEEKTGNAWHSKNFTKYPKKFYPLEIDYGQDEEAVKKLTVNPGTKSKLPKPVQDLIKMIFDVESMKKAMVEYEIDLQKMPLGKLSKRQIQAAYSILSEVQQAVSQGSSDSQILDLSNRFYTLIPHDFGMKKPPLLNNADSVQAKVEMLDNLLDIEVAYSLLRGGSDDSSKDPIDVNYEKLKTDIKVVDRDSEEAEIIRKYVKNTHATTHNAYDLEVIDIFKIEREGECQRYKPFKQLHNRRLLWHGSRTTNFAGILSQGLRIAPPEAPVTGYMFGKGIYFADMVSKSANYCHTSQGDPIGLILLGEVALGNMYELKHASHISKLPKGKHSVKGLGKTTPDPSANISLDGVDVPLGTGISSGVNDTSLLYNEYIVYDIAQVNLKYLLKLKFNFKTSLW", "test": "PARP1 enzymatic inhibition assay (ELISA, chemiluminescence)", "assay_type": "biochemical"}, "MDA-MB-468 cells [2]": {"tested_on": "MDA-MB-468 cells", "test": "Cell cycle analysis (PI staining, flow cytometry)", "assay_type": "cell-based", "conditions": "48 h, several concentrations", "method": "Cell cycle distribution was determined using a DNA Content Quantitation Assay Kit (Solarbio, China). MDA-MB-468 cells were seeded in six-well plates and treated with various […]\ntreatment, cells were harvested, ﬁxed in 70% ethanol at 4°C overnight, and washed with PBS.\nCells were then incubated with RNase (100 µL) at 37°C for 30 minutes followed by propidium iodide (PI) staining (400 µL, 30 minutes, 4°C in the dark). Cell cycle distribution was analyzed using an Accuri C6 Plus ﬂow cytometer (BD Biosciences, CA) and data were processed using […]\nFigure S5. DDY02 induced cell cycle of MDA-MB-468 cells arrest in the G1 phase.\n(1 picture or pasted object on this page, not shown here)"}, "MDA-MB-468 cells [3]": {"tested_on": "MDA-MB-468 cells", "test": "Cellular NAD level determination (NAD+/NADH WST-8 kit)", "assay_type": "cell-based", "method": "According to the manufacturer’s instructions, an NAD^+/NADH Assay kit with WST-8 (Beyotime, China) was used to measure the intracellular NAD level. The cells collected by centrifugation were added to NAD^+/NADH lysis buffer to obtain a cell lysate. After adding […] working solution, the lysate was incubated at 37 °C for 10 min, and then followed by the addition of color-developing solution. The total concentration of NADH and NAD can be measured by detecting the absorbance at 450 nm. To measure the concentration of NADH, the cell lysate was incubated at 60 °C for 30 min before adding […] working solution. Finally, the NAD content is obtained by the subtraction [NAD^+] = [NADH + NAD^+] − [NADH]."}, "MDA-MB-468 cells [4]": {"tested_on": "MDA-MB-468 cells", "test": "Annexin V-FITC/PI apoptosis assay (flow cytometry)", "assay_type": "cell-based", "conditions": "72 h", "method": "To investigate whether DDY02 induced apoptosis in MDA-MB-468 cells, we performed the annexin V/PI double staining assay, and the staining results were analyzed by flow cytometry, dividing the results into four quadrants (Q1~Q4). In this representation, Q1 represents necrosis, Q2 represents late apoptosis, Q3 represents early apoptosis, and Q4 represents living cells.\nThe Annexin V-FITC/PI cell apoptosis detection kit (KeyGen Biotech, Nanjing, China) was employed for the analysis of cell apoptosis. MDA-MB-468 cells (5 × 10^5 cells/mL) were seeded in six-well plates and treated with compounds at corresponding concentrations for 72 h. Subsequently, MDA-MB-468 cells were harvested and incubated with 5 μL of Annexin V-FITC and 5 μL of propidium iodide (PI) in the dark for 15 min at room temperature. Apoptosis data were assessed using flow cytometry (Accuri C6 Plus, BD Bioscience, San Jose, CA, USA)."}, "MDA-MB-468": {"tested_on": "MDA-MB-468", "test": "MTT cell viability assay, MDA-MB-468", "assay_type": "cell-based", "conditions": "Homo sapiens, 72 h, mean ± SEM, read-out: Cytotoxicity IC50 MDA-MB-468", "method": "as §1, §2"}, "MDA-MB-231": {"tested_on": "MDA-MB-231", "test": "MTT cell viability assay, MDA-MB-231", "assay_type": "cell-based", "conditions": "Homo sapiens, 72 h, mean ± SEM, read-out: Cytotoxicity IC50 MDA-MB-231", "method": "as §1, §2"}, "MDA-MB-468 cells [5]": {"tested_on": "MDA-MB-468 cells", "test": "Comet assay (DNA damage)", "assay_type": "cell-based", "conditions": "24 h, several concentrations", "method": "The comet assay was conducted under alkaline conditions using the Comet Assay Kit (Beyotime, Shanghai, China) following the manufacturer’s guidelines. […] This mixture was spread onto microscope slides and immersed in lysis solution for 1 h. Electrophoresis was carried out in a horizontal apparatus at 25 V and 300 mA. After electrophoresis, slides were stained with propidium iodide (PI) for DNA visualization, and images were captured using a fluorescence inverted microscope."}, "MDA-MB-468 cells [6]": {"tested_on": "MDA-MB-468 cells", "test": "Colony formation (clonogenic) assay", "assay_type": "cell-based", "conditions": "MDA-MB-468, 7 days", "method": "MDA-MB-468 cells were plated in 6-well plates at a density of 500 cells/well and allowed to grow for 7 days to promote colony formation. Following the incubation period, cells were washed with PBS, fixed in methanol for 15 min, and stained with 1% crystal violet for 1 h. Subsequently, colonies were imaged and counted."}, "NAMPT": {"target": "NAMPT (Homo sapiens, UniProt P43490)", "sequence (P43490 whole entry)": "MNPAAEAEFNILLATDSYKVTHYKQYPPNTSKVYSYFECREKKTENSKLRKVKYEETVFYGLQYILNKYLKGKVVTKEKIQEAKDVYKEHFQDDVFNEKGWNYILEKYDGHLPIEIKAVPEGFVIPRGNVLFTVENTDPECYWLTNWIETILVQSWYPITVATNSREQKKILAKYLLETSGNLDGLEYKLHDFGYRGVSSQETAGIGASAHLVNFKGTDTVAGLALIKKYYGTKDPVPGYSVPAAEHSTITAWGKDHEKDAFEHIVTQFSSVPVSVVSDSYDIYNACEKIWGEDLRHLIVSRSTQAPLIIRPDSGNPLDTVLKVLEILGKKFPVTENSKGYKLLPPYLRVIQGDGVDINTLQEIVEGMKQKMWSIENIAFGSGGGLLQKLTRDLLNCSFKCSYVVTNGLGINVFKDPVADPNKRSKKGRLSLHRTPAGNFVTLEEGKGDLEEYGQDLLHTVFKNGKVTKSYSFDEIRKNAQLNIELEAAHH", "test": "NAMPT enzymatic inhibition assay (fluorescence, coupled NMNAT/alcohol dehydrogenase)", "assay_type": "biochemical", "conditions": "mean ± SD of at least two independent experiments in duplicate"}, "MDA-MB-468 cells [7]": {"tested_on": "MDA-MB-468 cells", "test": "Wound scratch cell migration assay", "assay_type": "cell-based", "conditions": "up to 48 h", "method": "MDA-MB-468 cells were plated in 6-well plates at a density of 5 × 10^5 cells/well and allowed to incubate overnight. A scratch was carefully generated in the cell monolayer using a 10 µL pipette tip. […] Images were acquired at 0, 12, 24, and 48 h time points to monitor and analyze the migration of cells over the specified intervals."}, "MDA-MB-468 cells [8]": {"tested_on": "MDA-MB-468 cells", "test": "Western blot of BCL2", "assay_type": "cell-based", "conditions": "24 h, several concentrations", "method": "(§3) Cells were then lysed using RIPA buffer supplemented with protease and phosphatase inhibitors. Protein concentrations were determined using the BCA Protein Assay Kit (Thermo Fisher Scientific^TM, Waltham, MA, USA). Equal amounts of protein (20–30 µg) were separated by SDS-polyacrylamide gel electrophoresis and transferred to a polyvinylidene fluoride (PVDF) membrane. The membrane was blocked with 5% milk in PBS before incubation with primary antibodies. Primary antibodies against γ-H2AX (Cell Signaling Technology™, Danvers, MA, USA), BCL2 (Abcam™, Cambridge, UK), and β-actin (Proteintech™, Rosemont, IL, USA) were used. After overnight incubation at 4 °C, membranes were washed and incubated with HRP-conjugated secondary antibodies for 1 h. Protein bands were visualized using ECL reagents (Labgic Technology^TM, Beijing, China)."}, "MDA-MB-468 cells [9]": {"tested_on": "MDA-MB-468 cells", "test": "NMN rescue of cytotoxicity", "assay_type": "cell-based", "conditions": "200 μM NMN", "source_text": "NMN is the direct product of the NAMPT-catalyzed reaction. Excessive NMN can counteract the inhibitory effect of NAMPT inhibition. […] The reversal of DDY02’s efficacy by NMN underscores the compound’s mechanism of action and confirms the critical role of NAMPT inhibition in mediating its therapeutic effects. This observation also emphasizes the potential of NMN as a modulator in therapeutic scenarios involving NAMPT-targeted treatments."}, "MCF-7": {"tested_on": "MCF-7", "test": "MTT cell viability assay, MCF-7", "assay_type": "cell-based", "conditions": "Homo sapiens, MCF7, 72 h, mean ± SEM, read-out: Cytotoxicity IC50 MCF-7", "method": "as §1, §2"}, "MDA-MB-468 cells [10]": {"tested_on": "MDA-MB-468 cells", "test": "Western blot of γ-H2AX", "assay_type": "cell-based", "conditions": "24 h", "method": "as §3"}},
  "data": [
    {"smiles": "O=C(NCc1cccnc1)Nc1ccc(S(=O)(=O)N2CCN(C(=O)c3cc(Cc4n[nH]c(=O)c5ccccc45)ccc3F)CC2)cc1", "note": "[DDY02, 1-(4-((4-(2-Fluoro-5-((4-oxo-3,4-dihydrophthalazin-1-yl)methyl)benzoyl)piperazin-1-yl)sulfonyl)phenyl)-3-(pyridin-3-ylmethyl)urea]", "values": [
      {"measurement": "viability at 3 µM", "setting": "MCF-10A; Homo sapiens, 72 h, 3.0 μM, MCF-10A, mean ± SEM, read-out: Cell Survival Rate", "value": "70.3 ± 1.06", "unit": "%"},
      {"measurement": "selectivity of cytotoxic activity between breast cancer cells and normal cells (MCF-10A)", "setting": "MCF-10A; comparison of Tables 2 and 3", "value": "no selectivity"},
      {"measurement": "IC50 at 72 h", "setting": "[1]", "value": "5.31 ± 0.12", "unit": "µM"},
      {"measurement": "IC50", "setting": "PARP1; mean ± SD of at least two independent experiments in duplicate", "value": "50 ± 10", "unit": "nM"},
      {"measurement": "fold decrease in inhibitory capacity against PARP1 compared to DDY01", "setting": "PARP1; ratio of IC50 values", "value": 5.5, "unit": "fold"},
      {"measurement": "melting point", "value": "197 to 198", "unit": "°C"},
      {"measurement": "cell cycle distribution", "setting": "MDA-MB-468 cells [2]", "value": "dose-dependent G1-phase cell cycle arrest"},
      {"measurement": "cellular NAD levels", "setting": "MDA-MB-468 cells [3]; 24 h, 1 μM", "value": "marginally less potent than FK866"},
      {"measurement": "cellular NAD levels", "setting": "MDA-MB-468 cells [3]; 24 h post-treatment, several concentrations", "value": "reduced cellular NAD levels in a dose-dependent manner"},
      {"measurement": "percentage of apoptotic cells (Q2 + Q3)", "setting": "MDA-MB-468 cells [4]; 0.3 µM", "value": 13.34, "unit": "%"},
      {"measurement": "levels of apoptosis (comparison)", "setting": "MDA-MB-468 cells [4]; 1 μM", "value": "higher levels of apoptosis compared to Olaparib and FK866 alone"},
      {"measurement": "percentage of apoptotic cells (Q2 + Q3)", "setting": "MDA-MB-468 cells [4]; 1 μM", "value": 21.20, "unit": "%"},
      {"measurement": "percentage of apoptotic cells (Q2 + Q3)", "setting": "MDA-MB-468 cells [4]; 3 µM", "value": 48.3, "unit": "%"},
      {"measurement": "IC50", "setting": "MDA-MB-468", "value": "4.43 ± 0.04", "unit": "µM"},
      {"measurement": "IC50", "setting": "MDA-MB-231", "value": "10.4 ± 0.16", "unit": "µM"},
      {"measurement": "DNA damage (comet assay)", "setting": "MDA-MB-468 cells [5]", "value": "increased DNA damage in a concentration-dependent manner"},
      {"measurement": "colony formation", "setting": "MDA-MB-468 cells [6]; 1 μM", "value": "more potent ability to inhibit colony formation compared to Olaparib, albeit slightly less effective than FK866"},
      {"measurement": "colony formation", "setting": "MDA-MB-468 cells [6]; several concentrations", "value": "dose-dependent suppression of colony formation"},
      {"measurement": "IC50", "setting": "NAMPT", "value": "10 ± 3", "unit": "nM"},
      {"measurement": "inhibitory effect on cell migration", "setting": "MDA-MB-468 cells [7]; 1 μM", "value": "slightly less pronounced inhibitory effect"},
      {"measurement": "inhibitory effect on cell migration", "setting": "MDA-MB-468 cells [7]; 3 μM", "value": "further augmented"},
      {"measurement": "BCL2 expression", "setting": "MDA-MB-468 cells [8]", "value": "inhibited BCL2 expression in a dose-dependent manner"},
      {"measurement": "cytotoxic effects after preincubation with NMN", "setting": "MDA-MB-468 cells [9]", "value": "reversed the cytotoxic effects"},
      {"measurement": "IC50", "setting": "MCF-7", "value": "7.61 ± 0.14", "unit": "µM"},
      {"measurement": "accumulation of γ-H2AX", "setting": "MDA-MB-468 cells [10]; 1 μM", "value": "most substantial effect"},
      {"measurement": "accumulation of γ-H2AX", "setting": "MDA-MB-468 cells [10]; several concentrations", "value": "dose-dependent accumulation of γ-H2AX"}
    ]}
  ]
}
